Test systems include ACHN; HCT-15; HL-60; HT-29; IGROV-1; K562; MCF7; NCI/ADR-RES; OVCAR-8; RPMI-8226; RXF 393; SF-268; SK-MEL-28; SNB-19; T47D; TK-10; U-251; HCC 2998.
Holding throughout (test): growth of human tumour cells (NCI), 48 h

Each structure is given as a SMILES string.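 Results reflect a 48-hour exposure of cells in 96-well plates to compound at five concentrations. Abbreviation: GI50, concentration required for 50% inhibition of growth.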 Calls of active or inactive are those of the source. No stated cut-off is given here; in the data, active = GI50 up to about 1.1 µM and inactive = higher.

Turning to `O=S(=O)(O)c1ccc2cc(/N=N\c3cc(S(=O)(=O)O)c4cccnc4c3O)ccc2c1`, the GI50 in the test with ACHN is > 100 µM (inactive); with HCT-15, over 100 µM; in the test with HL-60 it was 1.61 µM (inactive); in the test with HT-29, > 100 µM (inactive); in the test on IGROV-1, > 100 µM (inactive); in the test with K562 it was > 100 µM (inactive). Further, the GI50 with MCF7, in the test on NCI/ADR-RES, with OVCAR-8, in the test with RPMI-8226, in the test with RXF 393 and in the test with SF-268 was > 100 µM (inactive) throughout. Moreover, the GI50 in the test on SK-MEL-28, with SNB-19, with T47D, with TK-10 and in the test with U-251 was > 100 µM (inactive) throughout.

In the case of `COc1ccc(C2=C(N)c3c(Cl)cccc3C2=O)cc1`, the GI50 was > 100 µM (inactive) in the test on ACHN; > 100 µM (inactive) in the test on HCC 2998; over 100 µM with HCT-15; > 100 µM (inactive) in the test on HL-60; > 100 µM (inactive) in the test on HT-29; > 100 µM (inactive) with IGROV-1. The GI50 in the test on MCF7 is > 100 µM (inactive); in the test with NCI/ADR-RES it was 50 µM (inactive); in the test on OVCAR-8 it was 53.1 µM (inactive); in the test with RPMI-8226 it was > 100 µM (inactive); in the test on SF-268 it was > 100 µM (inactive); in the test with SK-MEL-28 it was > 100 µM (inactive). In addition, the GI50 in the test with SNB-19 is 22 µM (inactive); with T47D, 78 µM (inactive); in the test with U-251 it was 49.3 µM (inactive).

Take `CCCNC(C#N)c1ccc(C(C#N)NCCC)cc1` (stereo unspecified): the GI50 was > 100 µM (inactive) in the test with ACHN; > 100 µM (inactive) with HCC 2998; over 100 µM with HCT-15; 40.8 µM (inactive) with HL-60; > 100 µM (inactive) with HT-29; > 100 µM (inactive) in the test on IGROV-1. Besides, the GI50 is 37.8 µM (inactive) in the test on K562; 50.2 µM (inactive) with NCI/ADR-RES; 29.9 µM (inactive) in the test with OVCAR-8; > 100 µM (inactive) with RXF 393; > 100 µM (inactive) with SF-268; > 100 µM (inactive) in the test with SK-MEL-28. For the same molecule, the GI50 with SNB-19, in the test on T47D, with TK-10 and in the test on U-251 was > 100 µM (inactive) in each case.

In the case of `O=S(=O)(O)c1ccc2c(/N=N/c3cccc4ccccc34)c(O)c(S(=O)(=O)O)cc2c1`, the GI50 was > 100 µM (inactive) in the test with ACHN; over 100 µM with HCT-15; > 100 µM (inactive) with HL-60; > 100 µM (inactive) in the test on HT-29; > 100 µM (inactive) in the test with IGROV-1; > 100 µM (inactive) in the test with K562. Also, the GI50 in the test on NCI/ADR-RES, in the test on OVCAR-8, in the test with RPMI-8226, in the test with RXF 393, with SF-268 and in the test with SK-MEL-28 was > 100 µM (inactive) each time. For the same molecule, the GI50 in the test with SNB-19, with T47D, in the test with TK-10 and in the test on U-251 was > 100 µM (inactive) each time.

`O=C(C1C(c2ccccc2)N1C(c1ccccc1)c1ccccc1)C1C(c2ccccc2)N1C(c1ccccc1)c1ccccc1` (stereo unspecified): the GI50 was > 10 µM (inactive) in the test on ACHN; 17.7 µM (inactive) in the test on HCC 2998; over 10 µM with HCT-15; 2.88 µM (inactive) in the test with HL-60; 13.6 µM (inactive) in the test on HT-29; > 10 µM (inactive) in the test with IGROV-1. Moreover, the GI50 in the test on K562 was 3.66 µM (inactive); in the test on MCF7 it was 5.31 µM (inactive); with NCI/ADR-RES, 27.4 µM (inactive); with OVCAR-8, 29.6 µM (inactive); with RPMI-8226, 3.59 µM (inactive); in the test with SF-268, 24.7 µM (inactive). Also, the GI50 in the test on SK-MEL-28 is 15.7 µM (inactive); with SNB-19, 97.5 µM (inactive); in the test on T47D, 28.4 µM (inactive); with TK-10, 24.8 µM (inactive); with U-251, 25.1 µM (inactive).

Take `O=C1Nc2ccccc2C(=O)/C1=C/NC(=S)NCCc1ccccc1`: the GI50 in the test on ACHN was > 100 µM (inactive); with HCC 2998 it was > 100 µM (inactive); in the test with HCT-15 it was over 100 µM; in the test with HL-60, > 100 µM (inactive); with HT-29 it was > 100 µM (inactive); in the test on IGROV-1, > 100 µM (inactive). The GI50 in the test on MCF7, in the test with NCI/ADR-RES, in the test on OVCAR-8, in the test on SK-MEL-28, in the test on SNB-19 and in the test on T47D was > 100 µM (inactive) throughout. The GI50 was 22.1 µM (inactive) in the test with TK-10 and > 100 µM (inactive) in the test with U-251.

Turning to `Oc1cn(-c2ccc(Cl)cc2)nc1-c1nnc(-c2ccccc2)o1`, the GI50 is 0.262 µM in the test on HCT-15; 0.181 µM (active) in the test with HL-60; 2.83 µM (inactive) in the test on HT-29; 0.989 µM (active) in the test with IGROV-1; 0.122 µM (active) in the test with K562; 0.263 µM (active) in the test with MCF7. Besides, the GI50 is 0.215 µM (active) in the test with NCI/ADR-RES; 0.277 µM (active) in the test on OVCAR-8; 0.728 µM (active) in the test on RPMI-8226; 1.14 µM (inactive) in the test with RXF 393; 0.34 µM (active) in the test on SF-268; 15.2 µM (inactive) with SK-MEL-28. The GI50 in the test with SNB-19 is 3.03 µM (inactive); in the test with T47D, 3.86 µM (inactive); in the test with TK-10 it was 0.17 µM (active); with U-251, 0.2 µM (active).

Regarding `CC(=O)[C@H]1CC[C@@H]2[C@]1(C)CC=C1[C@]23C=C[C@]2(C[C@@H](O)CC[C@]12C)C(C(=O)O)C3C(=O)O` (stereo partly specified), the GI50 in the test on ACHN is > 100 µM (inactive); in the test on HCC 2998 it was > 100 µM (inactive); in the test with HCT-15, over 100 µM; in the test on HL-60 it was > 100 µM (inactive); in the test on HT-29, > 100 µM (inactive); with IGROV-1, > 100 µM (inactive). The GI50 with K562, with MCF7, with NCI/ADR-RES, in the test on OVCAR-8, in the test with RPMI-8226 and in the test with SF-268 was > 100 µM (inactive) in each case. The GI50 in the test with SK-MEL-28, with SNB-19, with T47D, in the test with TK-10 and in the test with U-251 was > 100 µM (inactive) each time.

Consider `NCC(=O)N[C@H]1c2ccsc2/C(=N/O)[C@H]1O`, for which the GI50 in the test with HCC 2998 was > 100 µM (inactive); in the test with HCT-15 it was over 100 µM; in the test on HL-60 it was > 100 µM (inactive); in the test on HT-29, > 100 µM (inactive); in the test with IGROV-1, > 100 µM (inactive); in the test with K562, > 100 µM (inactive). The GI50 with MCF7, in the test with NCI/ADR-RES, in the test on OVCAR-8, with RXF 393, in the test with SK-MEL-28 and in the test with T47D was > 100 µM (inactive) each time. The GI50 with TK-10 and with U-251 was > 100 µM (inactive) each time.

With `CC1(C)C=CC(=O)C(O)C(C)(C)C1=O` (stereo unspecified), the GI50 in the test with ACHN is 98.4 µM (inactive); in the test on HCT-15, 51.2 µM; in the test with HL-60 it was 27.4 µM (inactive); in the test on HT-29, 88.3 µM (inactive); with IGROV-1 it was 89.1 µM (inactive); in the test with K562, 30.3 µM (inactive). Further, the GI50 in the test with NCI/ADR-RES is 72.4 µM (inactive); in the test with OVCAR-8, 59 µM (inactive); in the test with RPMI-8226, 21.3 µM (inactive); in the test with RXF 393, 66.5 µM (inactive); in the test on SF-268, 30.1 µM (inactive); in the test on SK-MEL-28 it was > 100 µM (inactive). In addition, the GI50 was > 100 µM (inactive) with SNB-19, > 100 µM (inactive) in the test on T47D, 51.5 µM (inactive) in the test with TK-10 and > 100 µM (inactive) with U-251.

Regarding `CCOP(=O)(OCC)C(Nc1ccc(C(=O)O)cc1)c1ccc(C(Nc2ccc(C(=O)O)cc2)P(=O)(OCC)OCC)cc1` (stereo unspecified), the GI50 with ACHN was > 100 µM (inactive); with HCC 2998, > 100 µM (inactive); in the test with HCT-15 it was over 100 µM; in the test on HT-29 it was > 100 µM (inactive); in the test with IGROV-1, > 100 µM (inactive); in the test on K562 it was > 100 µM (inactive). The GI50 with NCI/ADR-RES, with OVCAR-8, in the test with RPMI-8226, with RXF 393, in the test with SF-268 and with SK-MEL-28 was > 100 µM (inactive) throughout. Further, the GI50 in the test with SNB-19, with T47D, with TK-10 and with U-251 was > 100 µM (inactive) each time.

In the case of `Cc1ccnn1CCc1ccc(Cl)cc1Cl`, the GI50 in the test with ACHN is 27.9 µM (inactive); in the test on HCT-15, 36.5 µM; in the test on HL-60 it was 7.69 µM (inactive); in the test with HT-29, 36.8 µM (inactive); with IGROV-1 it was 29.6 µM (inactive); in the test on K562, 29.1 µM (inactive). Besides, the GI50 in the test with MCF7 is 31.9 µM (inactive); in the test with NCI/ADR-RES, 6.82 µM (inactive); in the test with OVCAR-8, 27.9 µM (inactive); in the test on RPMI-8226, 8.73 µM (inactive); with RXF 393, 9.91 µM (inactive); with SF-268, 27 µM (inactive). The GI50 with SK-MEL-28 is 35.4 µM (inactive); in the test with SNB-19, 28.6 µM (inactive); in the test on T47D it was 8.97 µM (inactive); in the test on TK-10, 20.8 µM (inactive); in the test on U-251, 29.1 µM (inactive).

(Values after ChEMBL document CHEMBL1201862, “PubChem BioAssay data set” (2004).)
